Legend:
serum ApoE = molecular target: T1, serum ApoE (Macaca mulatta, UniProt Q28502); assay: Heparin Sepharose HI-TRAP binding assay; parameters: species or system rhesus monkey; conditions: HI-TRAP binding upon rhesus serum incubation, 2×DPBS conditions
T1 construct: from tissue; host or cells: rhesus monkey serum
Experimental: Lipid nanoparticles (LNP) with neutral surface charge are not retained after injection onto heparin sepharose with 1× Dulbecco's phosphate buffered saline (DPBS) as the running buffer but elute in the column void volume. […] Lipid nanoparticles with surface bound ApoE bind to heparin sepharose with high affinity and are eluted only at high salt (1M NaCl).
Lipid nanoparticles were incubated at 37° C. for 20 min at a final siRNA concentration of 50 μg/mL with various concentrations of either purified or recombinant human apolipoprotein E or 0.1-50% rat/mouse/rhesus monkey/human serum in 1× Dulbccco's phosphate buffered saline (DPBS). After incubation with ApoE or serum LNP samples were diluted 10-fold using 1×DPBS and analyzed by heparin sepharose chromatography. Peak area of retained LNP (after subtraction of appropriate blank signals) is compared to total peak area of LNP control without ApoE and/or serum incubation to determine the percentage of the LNP which undergoes shift to high affinity heparin interaction after incubation with ApoE/serum.
A heparin sepharose HI-TRAP™ chromatography column (GE Healthcare; 1 mL bed volume) is equilibrated with either 1× or 2× Dulbecco's PBS; the higher 2× salt concentration is used for LNPs with higher intrinsic retention on heparin sepharose (presumably due to higher positive surface charge). • Mobile Phase A: 1× or 2×DPBS • Mobile Phase B: 1M NaCl in 10 mM sodium phosphate buffer, pH 7.0 • 100% A delivered isocratically for 10 min followed by step gradient to 100% B; hold for additional 10 min; step gradient back to 100% A and reequilibrate for additional 10 min prior to injection of next sample • Flow rate: 1 mL/min • Sample injection volume: 50 μL. • Detection: UV @260 nm HI-TRAP™ Binding Results Upon Rhesus Serum Incubation (2×DPBS Conditions)

[1] = Rhesus monkey in vivo evaluation of ALT increases; conditions: serum, FIG. 6
Experimental: Alanine aminotransferase (ALT) is measured in serum that is harvested from clotted monkey whole blood after centrifugation. A Roche Modular System automated chemistry analyzer measures the enzymatic activity of ALT in the serum by using International Federation of Clinical Chemistry standardized procedures and reagents. The analyzer's computer uses absorbance measurements to calculated ALT activity in the sample as compared to a standard curve. The ALT activity is reported in International Units per Liter (IU/L).

[2] = Determination of cationic lipid levels in monkey liver (LC/MS-MS); assay type: in vivo; conditions: monkeys, FIG. 7
Experimental: Liver tissue was weighed into 20-ml vials and homogenized in 9 v/w of water using a GenoGrinder 2000 (OPS Diagnostics, 1600 strokes/min, 5 min). A 50 μL aliquot of each tissue homogenate was mixed with 300 μL of extraction/protein precipitating solvent (50/50 acetonitrile/methanol containing 500 nM internal standard) and the plate was centrifuged to sediment precipitated protein. A volume of 200 μL of each supernatant was then transferred to separate wells of a 96-well plate and 10 μl samples were directly analyzed by LC/MS-MS.
Standards were prepared by spiking known amounts of a methanol stock solution of compound into untreated rat liver homogenate (9 vol water/weight liver). Aliquots (50 μL) each standard/liver homogenate was mixed with 300 μL of extraction/protein precipitating solvent (50/50 acetonitrile/methanol containing 500 nM internal standard) and the plate was centrifuged to sediment precipitated protein. A volume of 200 μL of each supernatant was transferred to separate wells of a 96-well plate and 10 μl of each standard was directly analyzed by LC/MS-MS.
Absolute quantification versus standards prepared and extracted from liver homogenate was performed using an Aria LX-2 HPLC system (Thermo Scientific) coupled to an API 4000 triple quadrupole mass spectrometer (Applied Biosystems). […]

[3] = Rat in vivo evaluation of toxicity (serum ALT and AST); conditions: ApoB siRNA RDV, tail vein, 24 hours after dosing, FIG. 2
Experimental: Six hours post dose, food is removed from the cages. Animal necropsy is performed 24 hours after LNP dosing. Rats are anesthetized under isoflurane for 5 minutes, then maintained under anesthesia by placing them in nose cones continuing the delivery of isoflurane until ex-sanguination is completed. Blood is collected from the vena cava using a 23 gauge butterfly venipuncture set and aliquoted to serum separator vacutainers for serum chemistry analysis. Punches of the excised caudate liver lobe are taken and placed in RNALater (Ambion) for mRNA analysis. Preserved liver tissue was homogenized and total RNA isolated using a Qiagen bead mill and the Qiagen miRNA-Easy RNA isolation kit following the manufacturer's instructions. Liver ApoB mRNA levels were determined by quantitative RT-PCR. Message was amplified from purified RNA utilizing a rat ApoB commercial probe set (Applied Biosystems Cat #RN01499054_m1). The PCR reaction was performed on an ABI 7500 instrument with a 96-well Fast Block. The ApoB mRNA level is normalized to the housekeeping PPIB (NM 011149) mRNA. PPIB mRNA levels were determined by RT-PCR using a commercial probe set (Applied Biosytems Cat. No. Mm00478295_m1). Results are expressed as a ratio of ApoB mRNA/PPIB mRNA. All mRNA data is expressed relative to the PBS control dose. […]

T1 sequence (Q28502 19-295): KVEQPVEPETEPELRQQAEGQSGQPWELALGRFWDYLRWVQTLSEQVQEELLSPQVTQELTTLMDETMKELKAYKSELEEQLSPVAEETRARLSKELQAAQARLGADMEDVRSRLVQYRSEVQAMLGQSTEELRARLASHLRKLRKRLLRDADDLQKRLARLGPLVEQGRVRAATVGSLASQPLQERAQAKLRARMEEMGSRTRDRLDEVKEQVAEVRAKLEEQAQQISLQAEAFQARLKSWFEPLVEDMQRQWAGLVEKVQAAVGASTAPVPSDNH

SMILES	% Bound (serum ApoE) [%]	peak ALT elevations compared with RDV containing DLinKC2DMA (Compound 45) or MC3 (Compound 46) [1]	cationic lipid liver levels compared with RDV containing DLinKC2DMA (Compound 45) or MC3 (Compound 46) [2]	tolerability (serum ALT and AST) compared with RDV containing DLinKC2DMA (Compound 45) or MC3 (Compound 46) [3]
CCCCC/C=C\C/C=C\CCCCCCCCCC(CCCCCCCCC)CCN(C)C (centres unmarked) [Compound 32, (13Z,16Z)—N,N-dimethyl-3-nonyldocosa-13,16-dien-1-amine]	100	lower peak ALT elevations	lower than	improved tolerability
CCCCCCCCCC(CCCCCCCC1CC1CCCCCCCC)N(C)C [Compound 33, N,N-dimethyl-1-[(1S,2R)-2-octylcyclopropyl]hepladecan-8-amine]	<5	lower peak ALT elevations	lower than	improved tolerability

From US11413348B2, “Low molecular weight cationic lipids for oligonucleotide delivery” (SIRNA THERAPEUTICS, INC., priority 2010, dated 2022)
